Experiments:
[1] = target: T1, Tyrosine-protein kinase Mer (Homo sapiens) (UniProt Q12866); experiment: Selectivity interaction (KinomeScan (DiscoverX)) EUB0001049a MERTK; conditions: at 1 µM
T1 sequence (whole entry): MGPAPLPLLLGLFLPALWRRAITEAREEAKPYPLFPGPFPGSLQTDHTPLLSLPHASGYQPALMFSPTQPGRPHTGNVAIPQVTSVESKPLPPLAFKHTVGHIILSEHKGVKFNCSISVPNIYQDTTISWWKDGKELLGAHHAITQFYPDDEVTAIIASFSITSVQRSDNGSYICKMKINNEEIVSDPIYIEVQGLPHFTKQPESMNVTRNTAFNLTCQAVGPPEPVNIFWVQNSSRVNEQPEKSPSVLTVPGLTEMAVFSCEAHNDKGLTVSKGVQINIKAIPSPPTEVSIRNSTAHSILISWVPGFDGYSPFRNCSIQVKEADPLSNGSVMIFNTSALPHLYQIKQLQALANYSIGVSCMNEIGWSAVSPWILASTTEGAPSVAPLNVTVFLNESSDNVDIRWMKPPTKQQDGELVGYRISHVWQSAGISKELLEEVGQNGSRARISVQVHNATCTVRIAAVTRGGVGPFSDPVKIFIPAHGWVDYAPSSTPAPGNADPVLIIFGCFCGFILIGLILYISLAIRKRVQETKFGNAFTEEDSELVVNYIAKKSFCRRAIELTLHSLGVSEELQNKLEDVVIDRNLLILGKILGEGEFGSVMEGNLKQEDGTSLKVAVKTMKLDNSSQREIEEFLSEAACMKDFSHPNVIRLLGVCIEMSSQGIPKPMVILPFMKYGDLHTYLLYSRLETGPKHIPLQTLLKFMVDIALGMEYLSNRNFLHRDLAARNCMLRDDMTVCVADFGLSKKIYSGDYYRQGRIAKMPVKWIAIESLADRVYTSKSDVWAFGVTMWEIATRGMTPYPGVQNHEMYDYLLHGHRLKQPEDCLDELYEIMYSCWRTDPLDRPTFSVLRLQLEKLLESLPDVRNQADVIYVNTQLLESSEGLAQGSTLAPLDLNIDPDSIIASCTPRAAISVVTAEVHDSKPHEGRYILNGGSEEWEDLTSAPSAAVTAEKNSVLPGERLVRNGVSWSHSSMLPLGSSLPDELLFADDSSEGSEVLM

[2] = target: T2, Ephrin type-B receptor 6 (Homo sapiens) (UniProt O15197); experiment: Selectivity interaction (Ambit KINOMEscan and KiNATiv profiling in Jurkat cells) EUB0000090b EPHB6; type: cell-based; conditions: at 1 µM
T2 sequence (whole entry): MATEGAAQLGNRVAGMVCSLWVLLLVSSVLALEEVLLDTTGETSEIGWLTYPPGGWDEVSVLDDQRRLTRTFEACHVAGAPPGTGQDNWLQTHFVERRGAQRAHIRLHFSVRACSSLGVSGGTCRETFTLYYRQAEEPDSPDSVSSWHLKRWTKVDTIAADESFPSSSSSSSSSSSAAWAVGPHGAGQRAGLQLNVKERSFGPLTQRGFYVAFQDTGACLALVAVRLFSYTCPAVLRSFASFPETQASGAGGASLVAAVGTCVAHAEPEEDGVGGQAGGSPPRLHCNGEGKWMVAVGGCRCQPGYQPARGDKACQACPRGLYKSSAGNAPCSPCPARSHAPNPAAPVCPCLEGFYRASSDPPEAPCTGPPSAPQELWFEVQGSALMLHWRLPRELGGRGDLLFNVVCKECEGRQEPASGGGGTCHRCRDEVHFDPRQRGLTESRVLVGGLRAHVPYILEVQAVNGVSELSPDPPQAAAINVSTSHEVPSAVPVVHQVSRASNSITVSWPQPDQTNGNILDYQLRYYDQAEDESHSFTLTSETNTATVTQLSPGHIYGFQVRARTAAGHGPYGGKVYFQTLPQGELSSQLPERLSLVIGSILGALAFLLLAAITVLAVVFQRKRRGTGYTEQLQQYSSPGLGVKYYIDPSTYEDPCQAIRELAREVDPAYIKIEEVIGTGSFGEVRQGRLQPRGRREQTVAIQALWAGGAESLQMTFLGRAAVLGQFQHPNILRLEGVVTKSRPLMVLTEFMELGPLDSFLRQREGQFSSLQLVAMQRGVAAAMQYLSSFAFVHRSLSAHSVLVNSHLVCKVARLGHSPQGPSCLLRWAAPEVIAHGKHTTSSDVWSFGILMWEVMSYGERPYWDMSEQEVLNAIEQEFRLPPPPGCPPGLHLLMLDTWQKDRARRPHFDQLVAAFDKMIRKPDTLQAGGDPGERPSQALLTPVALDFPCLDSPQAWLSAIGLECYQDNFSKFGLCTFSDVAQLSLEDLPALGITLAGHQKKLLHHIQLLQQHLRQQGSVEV

[3] = target: Cyclin-dependent kinase 13 (Homo sapiens, UniProt Q14004); experiment: Selectivity interaction (Ambit KINOMEscan and KiNATiv profiling in Jurkat cells) EUB0000090b CDK13; type: cell-based; conditions: at 1 µM
Sequence of Cyclin-dependent kinase 13 (Q14004 whole entry, looked up): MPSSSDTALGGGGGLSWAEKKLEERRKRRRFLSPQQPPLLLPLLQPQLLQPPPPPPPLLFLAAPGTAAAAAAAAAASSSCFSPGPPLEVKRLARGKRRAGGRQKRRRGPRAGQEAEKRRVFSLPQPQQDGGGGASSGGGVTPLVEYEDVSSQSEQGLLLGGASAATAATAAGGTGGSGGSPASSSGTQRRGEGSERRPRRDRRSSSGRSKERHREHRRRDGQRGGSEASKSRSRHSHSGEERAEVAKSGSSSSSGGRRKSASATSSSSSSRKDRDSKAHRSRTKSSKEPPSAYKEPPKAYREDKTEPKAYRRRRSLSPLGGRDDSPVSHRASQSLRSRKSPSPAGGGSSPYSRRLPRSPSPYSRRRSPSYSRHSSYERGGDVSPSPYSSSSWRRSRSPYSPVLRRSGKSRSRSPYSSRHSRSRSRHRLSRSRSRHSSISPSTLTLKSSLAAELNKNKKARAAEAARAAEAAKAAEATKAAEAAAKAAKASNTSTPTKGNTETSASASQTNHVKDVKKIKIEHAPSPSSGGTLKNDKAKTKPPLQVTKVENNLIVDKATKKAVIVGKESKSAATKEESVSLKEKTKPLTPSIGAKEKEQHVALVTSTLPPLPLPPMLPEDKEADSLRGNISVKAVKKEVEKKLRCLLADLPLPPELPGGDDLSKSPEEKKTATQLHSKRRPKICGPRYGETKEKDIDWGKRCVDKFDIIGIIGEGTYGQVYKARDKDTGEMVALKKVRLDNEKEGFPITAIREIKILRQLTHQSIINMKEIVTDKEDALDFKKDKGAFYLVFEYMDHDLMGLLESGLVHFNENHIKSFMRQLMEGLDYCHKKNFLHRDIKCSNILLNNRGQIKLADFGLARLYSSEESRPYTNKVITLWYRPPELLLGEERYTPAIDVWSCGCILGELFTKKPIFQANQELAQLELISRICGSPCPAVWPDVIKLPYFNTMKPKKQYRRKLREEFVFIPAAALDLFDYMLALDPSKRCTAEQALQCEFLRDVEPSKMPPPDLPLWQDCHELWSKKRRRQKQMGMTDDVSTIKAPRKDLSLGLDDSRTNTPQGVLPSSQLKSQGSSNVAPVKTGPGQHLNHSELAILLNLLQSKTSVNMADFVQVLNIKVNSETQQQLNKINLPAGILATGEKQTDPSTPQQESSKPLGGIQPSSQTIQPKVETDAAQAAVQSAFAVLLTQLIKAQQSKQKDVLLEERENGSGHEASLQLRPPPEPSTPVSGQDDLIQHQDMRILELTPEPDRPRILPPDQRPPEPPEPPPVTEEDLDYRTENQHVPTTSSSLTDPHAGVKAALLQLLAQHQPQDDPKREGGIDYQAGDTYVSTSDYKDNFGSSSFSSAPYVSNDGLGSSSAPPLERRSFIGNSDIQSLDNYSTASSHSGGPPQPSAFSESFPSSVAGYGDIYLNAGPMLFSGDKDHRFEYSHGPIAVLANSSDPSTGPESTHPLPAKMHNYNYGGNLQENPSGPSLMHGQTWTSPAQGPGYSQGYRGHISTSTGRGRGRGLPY

[4] = target: SRSF protein kinase 3 (Homo sapiens) (UniProt Q9UPE1); experiment: Selectivity interaction (KinomeScan (DiscoverX)) EUB0000695a SRPK3; conditions: at 100 nM
Sequence of SRSF protein kinase 3 (Homo sapiens) (Q9UPE1 whole entry): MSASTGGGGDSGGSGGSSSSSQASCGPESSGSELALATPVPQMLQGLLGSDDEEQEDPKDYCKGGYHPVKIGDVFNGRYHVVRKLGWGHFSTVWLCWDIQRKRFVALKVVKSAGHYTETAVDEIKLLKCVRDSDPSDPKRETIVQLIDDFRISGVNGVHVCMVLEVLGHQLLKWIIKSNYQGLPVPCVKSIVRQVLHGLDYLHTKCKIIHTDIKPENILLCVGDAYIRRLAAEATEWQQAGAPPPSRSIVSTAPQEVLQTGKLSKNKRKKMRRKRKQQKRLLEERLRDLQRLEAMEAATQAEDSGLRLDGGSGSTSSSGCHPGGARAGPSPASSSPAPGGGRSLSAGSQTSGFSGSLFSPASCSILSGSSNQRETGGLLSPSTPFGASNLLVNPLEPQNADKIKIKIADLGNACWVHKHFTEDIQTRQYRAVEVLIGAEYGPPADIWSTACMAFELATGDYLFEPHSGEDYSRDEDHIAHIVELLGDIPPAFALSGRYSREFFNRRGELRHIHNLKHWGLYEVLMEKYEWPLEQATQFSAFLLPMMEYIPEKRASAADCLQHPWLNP

[5] = target: T3, Serine/threonine-protein kinase RIO3 (Homo sapiens) (UniProt O14730); experiment: Selectivity interaction (KinomeScan (DiscoverX)) EUB0000618a RIOK3; conditions: at 10 µM
T3 sequence (whole entry): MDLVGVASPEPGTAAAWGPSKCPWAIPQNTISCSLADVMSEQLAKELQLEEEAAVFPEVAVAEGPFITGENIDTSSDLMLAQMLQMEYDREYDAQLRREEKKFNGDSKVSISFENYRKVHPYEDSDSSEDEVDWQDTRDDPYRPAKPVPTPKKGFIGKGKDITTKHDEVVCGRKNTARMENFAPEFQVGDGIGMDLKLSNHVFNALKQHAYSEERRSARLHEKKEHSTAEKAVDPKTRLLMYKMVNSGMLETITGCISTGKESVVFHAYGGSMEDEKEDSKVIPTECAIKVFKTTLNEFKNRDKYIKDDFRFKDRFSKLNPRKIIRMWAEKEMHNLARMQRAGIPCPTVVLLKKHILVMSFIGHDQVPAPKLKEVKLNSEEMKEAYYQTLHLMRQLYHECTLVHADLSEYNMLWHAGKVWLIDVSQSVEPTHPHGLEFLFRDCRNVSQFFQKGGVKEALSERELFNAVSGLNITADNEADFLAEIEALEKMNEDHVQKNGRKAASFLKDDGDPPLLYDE

[6] = target: Dual specificity tyrosine-phosphorylation-regulated kinase 1A (Homo sapiens, UniProt Q13627); experiment: Selectivity interaction (SelectScreen profiling (Invitrogen)) EUB0000607a DYRK1A; conditions: at 2 µM
[7] = target: RAF proto-oncogene serine/threonine-protein kinase (Homo sapiens) (UniProt P04049); experiment: Selectivity interaction (Kinase panel (KiNativ target engagement assay in Jurkat cells)) EUB0001635a RAF1; type: cell-based; conditions: Selectivity number of off-targets 0.0, Selectivity number of targets 233.0, Source Knowledge https://www.sciencedirect.com/science/article/pii/S2451945619300674?via%3Dihub, at 1 µM
Sequence of RAF proto-oncogene serine/threonine-protein kinase (Homo sapiens) (P04049 whole entry): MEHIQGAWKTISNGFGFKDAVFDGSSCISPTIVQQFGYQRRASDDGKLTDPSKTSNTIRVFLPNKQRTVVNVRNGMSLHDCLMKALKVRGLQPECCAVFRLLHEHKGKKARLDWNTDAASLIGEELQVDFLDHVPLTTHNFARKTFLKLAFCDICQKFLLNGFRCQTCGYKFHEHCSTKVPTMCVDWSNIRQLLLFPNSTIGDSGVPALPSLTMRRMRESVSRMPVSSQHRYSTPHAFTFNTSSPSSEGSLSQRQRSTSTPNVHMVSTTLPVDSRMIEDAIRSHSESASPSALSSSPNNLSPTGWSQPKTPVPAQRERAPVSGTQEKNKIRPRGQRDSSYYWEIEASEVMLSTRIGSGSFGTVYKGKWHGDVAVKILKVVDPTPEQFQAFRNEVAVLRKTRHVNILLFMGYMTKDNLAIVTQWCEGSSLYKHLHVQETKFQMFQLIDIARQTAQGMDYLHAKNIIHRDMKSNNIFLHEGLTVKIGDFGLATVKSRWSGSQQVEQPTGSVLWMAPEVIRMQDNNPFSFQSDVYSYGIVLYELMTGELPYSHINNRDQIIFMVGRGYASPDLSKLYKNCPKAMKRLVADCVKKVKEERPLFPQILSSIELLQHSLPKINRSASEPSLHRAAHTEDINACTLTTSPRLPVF

COc1cc(Nc2nc(C)cc(-c3cnn4nc(OC)ccc34)n2)cc(C(F)(F)F)c1 showed a % of control [1] of 98%.

In the case of CN(C)C/C=C/C(=O)Nc1ccc(C(=O)N2CCCC(Nc3ncc(Cl)c(-c4c[nH]c5ccccc45)n3)C2)cc1 (configuration not stated), the % of control [2] is reported as 76% and the % of control [3] is reported as 2.8%.

With Cc1cc(F)c(C(=O)Nc2cccc(-c3nncn3C(C)C)n2)cc1-n1cnc(C2CC2)c1 the % of control [4] was 100%.

With O[C@H]1CC[C@H](Nc2ncc3nc(Nc4c(F)cc(F)cc4F)n([C@H]4CCOC4)c3n2)CC1 the % of control [5] was 100%.

CNC(=O)Nc1ccc(-c2nc(N3CC4CCC(C3)O4)c3cnn(C4CCC5(CC4)OCCO5)c3n2)cc1 was tested, and the % of inhibition [6] was 2%.

For C=CC(=O)Nc1ccc(C(=O)Nc2[nH]nc3c2CN(C(=O)N[C@H](CN(C)C)c2ccccc2)C3(C)C)cc1, the % of engagement [7] was -6.3%.

— ChEMBL document CHEMBL5465560, “Selectivity Literature for EUbOPEN Chemogenomic Library” (2024)
